Experimental data as given in PubChem BioAssay (NCI).
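Abbreviation: GI50, concentration required for 50% inhibition of growth. At the TGI there is no net growth.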

Experiments:
Experiment in all cases: NCI tumour cell line growth inhibition, 384-well format
HOP-92 NSCLC = tested on: HOP-92 NSCLC
KM12 colon = tested on: KM12 colon
SK-MEL-5 melanoma = tested on: SK-MEL-5 melanoma
A498 renal = tested on: A498 renal
SK-OV-3 ovarian = tested on: SK-OV-3 ovarian
MALME-3M melanoma = tested on: MALME-3M melanoma
OVCAR-4 ovarian = tested on: OVCAR-4 ovarian
NCI-H322M lung = tested on: NCI-H322M lung
MOLT-4 leukemia = tested on: MOLT-4 leukemia
EKVX NSCLC = tested on: EKVX NSCLC
NCI-H23 lung = tested on: NCI-H23 lung
SN12C renal = tested on: SN12C renal
SW-620 colon = tested on: SW-620 colon
IGROV1 ovarian = tested on: IGROV1 ovarian
SNB-75 CNS = tested on: SNB-75 CNS
OVCAR-3 ovarian = tested on: OVCAR-3 ovarian
SF-295 CNS = tested on: SF-295 CNS
UACC-257 melanoma = tested on: UACC-257 melanoma
MDA-MB-435 melanoma = tested on: MDA-MB-435 melanoma
NCI/ADR-RES ovarian = tested on: NCI/ADR-RES ovarian
MDA-MB-231 breast = tested on: MDA-MB-231 breast
LOX IMVI melanoma = tested on: LOX IMVI melanoma
SNB-19 CNS = tested on: SNB-19 CNS
T-47D breast = tested on: T-47D breast
TK-10 renal = tested on: TK-10 renal
MCF7 breast = tested on: MCF7 breast
HT29 colon = tested on: HT29 colon
MDA-MB-468 breast = tested on: MDA-MB-468 breast
OVCAR-5 ovarian = tested on: OVCAR-5 ovarian
RPMI-8226 leukemia = tested on: RPMI-8226 leukemia
HOP-62 NSCLC = tested on: HOP-62 NSCLC
NCI-H460 NSCLC = tested on: NCI-H460 NSCLC
HCC-2998 colon = tested on: HCC-2998 colon
SR leukemia = tested on: SR leukemia
ACHN renal = tested on: ACHN renal
CAKI-1 renal = tested on: CAKI-1 renal
NCI-H522 lung = tested on: NCI-H522 lung
BT-549 breast = tested on: BT-549 breast
RXF 393 renal = tested on: RXF 393 renal
NCI-H226 lung = tested on: NCI-H226 lung
DU-145 prostate = tested on: DU-145 prostate
SK-MEL-28 melanoma = tested on: SK-MEL-28 melanoma
K-562 leukemia = tested on: K-562 leukemia
M14 melanoma = tested on: M14 melanoma
HCT-15 colon = tested on: HCT-15 colon
OVCAR-8 ovarian = tested on: OVCAR-8 ovarian
HL-60(TB) leukemia = tested on: HL-60(TB) leukemia
COLO 205 colon = tested on: COLO 205 colon
SF-539 CNS = tested on: SF-539 CNS
A549 NSCLC = tested on: A549 NSCLC
HS 578T breast = tested on: HS 578T breast
CCRF-CEM leukemia = tested on: CCRF-CEM leukemia
UO-31 renal = tested on: UO-31 renal
SF-268 CNS = tested on: SF-268 CNS
UACC-62 melanoma = tested on: UACC-62 melanoma
PC-3 prostate = tested on: PC-3 prostate
786-0 renal = tested on: 786-0 renal

CCC(CC)n1cnc2c(-c3cnc(N)cn3)nc(N3CC4CCC(C3)O4)nc21
GI50 (HOP-92 NSCLC): 298 nM
TGI (HOP-92 NSCLC): 4960 nM
GI50 (KM12 colon): 508 nM
TGI (KM12 colon): > 100000 nM
GI50 (SK-MEL-5 melanoma): 288 nM
TGI (SK-MEL-5 melanoma): 1610 nM
GI50 (A498 renal): 173 nM
TGI (A498 renal): 1320 nM
GI50 (SK-OV-3 ovarian): 400 nM
TGI (SK-OV-3 ovarian): 5190 nM
GI50 (MALME-3M melanoma): 69.4 nM
TGI (MALME-3M melanoma): 531 nM
GI50 (OVCAR-4 ovarian): 635 nM
TGI (OVCAR-4 ovarian): 3790 nM
GI50 (NCI-H322M lung): 394 nM
TGI (NCI-H322M lung): > 100000 nM
GI50 (MOLT-4 leukemia): 375 nM
TGI (MOLT-4 leukemia): 10500 nM
GI50 (EKVX NSCLC): 977 nM
TGI (EKVX NSCLC): 9920 nM
GI50 (NCI-H23 lung): 1270 nM
TGI (NCI-H23 lung): > 100000 nM
GI50 (SN12C renal): 433 nM
TGI (SN12C renal): > 100000 nM
GI50 (SW-620 colon): 3460 nM
TGI (SW-620 colon): > 100000 nM
GI50 (IGROV1 ovarian): 229 nM
TGI (IGROV1 ovarian): 894 nM
GI50 (SNB-75 CNS): 312 nM
TGI (SNB-75 CNS): 7840 nM
GI50 (OVCAR-3 ovarian): 901 nM
TGI (OVCAR-3 ovarian): > 100000 nM
GI50 (SF-295 CNS): 267 nM
TGI (SF-295 CNS): 2280 nM
GI50 (UACC-257 melanoma): 2370 nM
TGI (UACC-257 melanoma): > 100000 nM
GI50 (MDA-MB-435 melanoma): 1580 nM
TGI (MDA-MB-435 melanoma): 39900 nM
GI50 (NCI/ADR-RES ovarian): 2770 nM
TGI (NCI/ADR-RES ovarian): > 100000 nM
GI50 (MDA-MB-231 breast): 680 nM
TGI (MDA-MB-231 breast): > 100000 nM
GI50 (LOX IMVI melanoma): 1080 nM
TGI (LOX IMVI melanoma): 8870 nM
GI50 (SNB-19 CNS): 8090 nM
TGI (SNB-19 CNS): > 100000 nM
GI50 (T-47D breast): 66.9 nM
TGI (T-47D breast): 431 nM
GI50 (TK-10 renal): 1390 nM
TGI (TK-10 renal): > 100000 nM
GI50 (MCF7 breast): 184 nM
TGI (MCF7 breast): 80300 nM
GI50 (HT29 colon): 2530 nM
TGI (HT29 colon): > 100000 nM
GI50 (MDA-MB-468 breast): 375 nM
TGI (MDA-MB-468 breast): 1200 nM
GI50 (OVCAR-5 ovarian): 685 nM
TGI (OVCAR-5 ovarian): > 100000 nM
GI50 (RPMI-8226 leukemia): 29 nM
TGI (RPMI-8226 leukemia): 151 nM
GI50 (HOP-62 NSCLC): 1010 nM
TGI (HOP-62 NSCLC): 39100 nM
GI50 (NCI-H460 NSCLC): 187 nM
TGI (NCI-H460 NSCLC): > 100000 nM
GI50 (HCC-2998 colon): 10500 nM
TGI (HCC-2998 colon): > 100000 nM
GI50 (SR leukemia): 189 nM
TGI (SR leukemia): 1170 nM
GI50 (ACHN renal): 523 nM
TGI (ACHN renal): > 100000 nM
GI50 (CAKI-1 renal): 775 nM
TGI (CAKI-1 renal): 45800 nM
GI50 (NCI-H522 lung): 314 nM
TGI (NCI-H522 lung): > 100000 nM
GI50 (BT-549 breast): 1060 nM
TGI (BT-549 breast): 5220 nM
GI50 (RXF 393 renal): 1290 nM
TGI (RXF 393 renal): > 100000 nM
GI50 (NCI-H226 lung): 540 nM
TGI (NCI-H226 lung): 6520 nM
GI50 (DU-145 prostate): 2030 nM
TGI (DU-145 prostate): > 100000 nM
GI50 (SK-MEL-28 melanoma): 309 nM
TGI (SK-MEL-28 melanoma): 5990 nM
GI50 (K-562 leukemia): 1680 nM
TGI (K-562 leukemia): > 100000 nM
GI50 (M14 melanoma): 493 nM
TGI (M14 melanoma): > 100000 nM
GI50 (HCT-15 colon): 566 nM
TGI (HCT-15 colon): > 100000 nM
GI50 (OVCAR-8 ovarian): 1750 nM
TGI (OVCAR-8 ovarian): > 100000 nM
GI50 (HL-60(TB) leukemia): 44500 nM
TGI (HL-60(TB) leukemia): > 100000 nM
GI50 (COLO 205 colon): 425 nM
TGI (COLO 205 colon): > 100000 nM
GI50 (SF-539 CNS): 1630 nM
TGI (SF-539 CNS): > 100000 nM
GI50 (A549 NSCLC): 418 nM
TGI (A549 NSCLC): > 100000 nM
GI50 (HS 578T breast): 205 nM
TGI (HS 578T breast): 927 nM
GI50 (CCRF-CEM leukemia): 358 nM
TGI (CCRF-CEM leukemia): 14000 nM
GI50 (UO-31 renal): 3030 nM
TGI (UO-31 renal): > 100000 nM
GI50 (SF-268 CNS): 2570 nM
TGI (SF-268 CNS): > 100000 nM
GI50 (UACC-62 melanoma): 416 nM
TGI (UACC-62 melanoma): 4610 nM
GI50 (PC-3 prostate): 348 nM
TGI (PC-3 prostate): > 100000 nM
GI50 ([…]-0 renal): 2750 nM
TGI (786-0 renal): > 100000 nM
